Assay results reported in ChEMBL document CHEMBL2074099, “Divergent regulation of the class II P-glycoprotein gene in primary cultures of hepatocytes versus H35 hepatoma by glucocorticoids” (Cell Growth Differ, 1995).

How the values were obtained:
[1] = molecular target: T1, ATP-dependent translocase ABCB1 (Rattus norvegicus, UniProt P43245); experiment: TP_TRANSPORTER: Northern blot from primary hepatocytes; type: functional, cell-based, Hepatocyte
[2] = molecular target: T1, ATP-dependent translocase ABCB1; experiment: TP_TRANSPORTER: Western blot, primary hepatocytes; type: functional, cell-based, Hepatocyte

T1 sequence (P43245 whole entry): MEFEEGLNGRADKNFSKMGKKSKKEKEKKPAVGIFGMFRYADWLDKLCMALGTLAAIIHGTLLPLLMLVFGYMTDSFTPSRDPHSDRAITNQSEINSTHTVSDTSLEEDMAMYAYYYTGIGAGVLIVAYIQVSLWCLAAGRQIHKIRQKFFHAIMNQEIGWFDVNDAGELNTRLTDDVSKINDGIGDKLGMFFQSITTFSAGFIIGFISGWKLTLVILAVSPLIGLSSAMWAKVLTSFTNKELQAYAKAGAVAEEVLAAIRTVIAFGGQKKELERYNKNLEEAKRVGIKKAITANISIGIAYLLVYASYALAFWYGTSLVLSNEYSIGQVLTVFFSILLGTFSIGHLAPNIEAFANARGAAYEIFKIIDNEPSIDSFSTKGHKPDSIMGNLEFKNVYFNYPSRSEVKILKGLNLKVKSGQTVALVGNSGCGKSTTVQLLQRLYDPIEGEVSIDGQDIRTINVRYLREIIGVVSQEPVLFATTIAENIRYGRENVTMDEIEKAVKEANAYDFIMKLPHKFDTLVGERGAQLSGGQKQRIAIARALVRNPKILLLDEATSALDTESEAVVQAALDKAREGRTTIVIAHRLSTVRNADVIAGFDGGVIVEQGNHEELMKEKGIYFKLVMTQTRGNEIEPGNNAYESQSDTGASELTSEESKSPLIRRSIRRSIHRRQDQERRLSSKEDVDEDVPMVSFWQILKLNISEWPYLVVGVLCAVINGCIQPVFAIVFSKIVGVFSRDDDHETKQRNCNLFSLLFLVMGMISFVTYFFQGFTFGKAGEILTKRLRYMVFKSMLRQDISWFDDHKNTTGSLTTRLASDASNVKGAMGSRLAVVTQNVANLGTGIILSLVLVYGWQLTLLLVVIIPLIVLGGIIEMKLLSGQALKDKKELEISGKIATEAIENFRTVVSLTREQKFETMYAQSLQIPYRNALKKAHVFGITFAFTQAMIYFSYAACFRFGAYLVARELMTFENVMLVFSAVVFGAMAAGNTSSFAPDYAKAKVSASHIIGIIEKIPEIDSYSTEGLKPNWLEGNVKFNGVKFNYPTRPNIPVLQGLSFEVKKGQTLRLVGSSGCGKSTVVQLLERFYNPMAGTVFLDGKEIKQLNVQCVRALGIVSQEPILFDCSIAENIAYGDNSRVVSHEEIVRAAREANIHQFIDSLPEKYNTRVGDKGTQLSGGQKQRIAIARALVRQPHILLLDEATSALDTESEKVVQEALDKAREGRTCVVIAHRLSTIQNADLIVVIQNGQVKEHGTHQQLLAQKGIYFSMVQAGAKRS

Activity [1]: inducer [Decrease]
Activity [2]: inducer [Decrease]
Compound: C[C@@H]1C[C@H]2[C@@H]3CCC4=CC(=O)C=C[C@]4(C)[C@@]3(F)[C@@H](O)C[C@]2(C)[C@@]1(O)C(=O)CO [DEXAMETHASONE]
